The values below come from ChEMBL document CHEMBL1154015, “Structural and theoretical studies of [6-bromo-1-(4-fluorophenylmethyl)-4(1H)-quinolinon-3-yl)]-4-hydroxy-2-oxo-3-butenoïc acid as HIV-1 integrase inhibitor” (Bioorg Med Chem Lett, 2009).

Data set [1] concerns the target T1, Human immunodeficiency virus type 1 integrase (Human immunodeficiency virus 1, UniProt Q7ZJM1). The data set can be described thus: Inhibition of HIV1 integrase 3'-processing activity expressed in Escherichia coli BL21 (DE3) by gel based assay in presence of magnesium.
Data set [2] concerns the target T1, Human immunodeficiency virus type 1 integrase. The data set can be described thus: Inhibition of HIV1 integrase strand transfer activity expressed in Escherichia coli BL21 (DE3) by gel based assay in presence of magnesium.
Data set [3] relates to Human immunodeficiency virus 1. Kind of data set: Antiviral activity against HIV1 NL4-3 infected in human TZM-bl cells treated 4 hrs before infection measured after 48 hrs postinfection by beta-D-galactopyranoside assay. In kind it is functional, organism-based. Particulars: Human immunodeficiency virus 1, NL4-3, TZM-bl.
Data set [4] is described as follows: Cytotoxicity against HIV1 NL4-3 infected human TZM-bl cells assessed as reduction in cell viability after 3 days by WST1 assay. Format: cell-based. Particulars: HIV1 NL4-3 infected TZM-bl cells.
The nature of data set [5]: Selectivity index, ratio of CC50 for human TZM-bl cells to EC50 for HIV1 NL4-3. Format: toxicity, cell-based. Particulars: read-out: Ratio CC50/EC50.

T1 sequence (Q7ZJM1 whole entry): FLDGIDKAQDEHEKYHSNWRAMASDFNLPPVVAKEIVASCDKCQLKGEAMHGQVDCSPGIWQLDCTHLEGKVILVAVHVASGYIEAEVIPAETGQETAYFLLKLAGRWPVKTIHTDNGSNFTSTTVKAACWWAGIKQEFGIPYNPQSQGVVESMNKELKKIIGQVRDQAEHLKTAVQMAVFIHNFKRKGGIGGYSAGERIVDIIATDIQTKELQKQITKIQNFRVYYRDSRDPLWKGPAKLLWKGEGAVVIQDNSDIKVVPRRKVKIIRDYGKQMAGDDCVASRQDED

The term IC50 denotes the concentration that gives 50% inhibition. In general, EC50 refers to the concentration needed to bring the measured effect to its halfway point. The term CC50 denotes the concentration that lowers cell viability or growth by half. Regarding `CCOC(=O)C(=O)CC(=O)c1cn(Cc2ccc(F)cc2)c2ccc(Br)cc2c1=O`, the half-inhibitory concentration (IC50) in data set [1] worked out at 78 µM; in data set [2], 0.12 µM. Moreover, in data set [3], the EC50 was 17 µM. The cytotoxic concentration (CC50) at 72 h in data set [4] was above 1000 µM. Besides, the selectivity ratio in data set [5] was above 59.
With `O=C(O)C(=O)CC(=O)c1cn(Cc2ccc(F)cc2)c2ccc(Br)cc2c1=O`, the IC50 was 1.6 µM in data set [1] and 0.03 µM in data set [2]. The compound further returned an EC50 in data set [3] of 4 µM. Also, in data set [4], the CC50 at 72 h was above 1000 µM. For the same compound, the selectivity ratio in data set [5] was above 250.
